Source: the NIST ThermoML archive (doi:10.1021/je600519p)
± gives the expanded uncertainty stated by the source.

Assay: xn = mol fraction of the nth substance listed
Conditions: 101 kPa, Liquid

CC(=O)c1ccccc1 [acetophenone] + CCCCCCO
Conditions | mass density, 313.15 K [kg/m3] | mass density, 323.15 K [kg/m3] | speed of sound, 313.15 K [m/s] | speed of sound, 323.15 K [m/s] | viscosity, 313.15 K [mPa·s] | viscosity, 323.15 K [mPa·s]
x1 = 0.0498 | 813.97 ± 0.76 | 806.47 ± 0.77 | 1277 ± 10 | 1230 ± 10 | 2.684 ± 0.12 | 2.119 ± 0.098
x1 = 0.1009 | 823.85 ± 0.74 | 816.28 ± 0.75 | 1285 ± 11 | 1238 ± 10 | 2.481 ± 0.11 | 1.97 ± 0.091
x1 = 0.1517 | 833.75 ± 0.72 | 826.11 ± 0.73 | 1293 ± 11 | 1247 ± 10 | 2.292 ± 0.11 | 1.831 ± 0.085
x1 = 0.2106 | 845.32 ± 0.69 | 837.59 ± 0.71 | 1303 ± 11 | 1259 ± 10 | 2.104 ± 0.097 | 1.69 ± 0.079
x1 = 0.2474 | 852.58 ± 0.68 | 844.8 ± 0.7 | 1310 ± 11 | 1266 ± 10 | 1.977 ± 0.092 | 1.585 ± 0.075
x1 = 0.3028 | 863.61 ± 0.66 | 855.74 ± 0.67 | 1320 ± 11 | 1278 ± 10 | 1.812 ± 0.084 | 1.48 ± 0.07
x1 = 0.3426 | 871.57 ± 0.64 | 863.65 ± 0.66 | 1328 ± 11 | 1287 ± 11 | 1.697 ± 0.08 | 1.395 ± 0.067
x1 = 0.3978 | 882.7 ± 0.62 | 874.71 ± 0.64 | 1339 ± 11 | 1298 ± 11 | 1.58 ± 0.075 | 1.307 ± 0.063
x1 = 0.4512 | 893.55 ± 0.6 | 885.48 ± 0.62 | 1350 ± 11 | 1308 ± 11 | 1.483 ± 0.07 | 1.236 ± 0.06
x1 = 0.4985 | 903.23 ± 0.58 | 895.1 ± 0.6 | 1360 ± 11 | 1316 ± 11 | 1.396 ± 0.067 | 1.169 ± 0.057
x1 = 0.5526 | 914.38 ± 0.56 | 906.19 ± 0.57 | 1370 ± 11 | 1326 ± 11 | 1.322 ± 0.063 | 1.118 ± 0.055
x1 = 0.6071 | 925.7 ± 0.54 | 917.44 ± 0.55 | 1380 ± 11 | 1335 ± 11 | 1.263 ± 0.061 | 1.075 ± 0.053
x1 = 0.6491 | 934.49 ± 0.52 | 926.17 ± 0.54 | 1387 ± 11 | 1342 ± 11 | 1.255 ± 0.061 | 1.069 ± 0.053
x1 = 0.7101 | 947.35 ± 0.49 | 938.95 ± 0.51 | 1398 ± 11 | 1351 ± 11 | 1.243 ± 0.06 | 1.073 ± 0.053
x1 = 0.7485 | 955.5 ± 0.48 | 947.06 ± 0.5 | 1404 ± 11 | 1356 ± 11 | 1.252 ± 0.06 | 1.075 ± 0.053
x1 = 0.8019 | 966.9 ± 0.46 | 958.4 ± 0.47 | 1408 ± 11 | 1361 ± 11 | 1.264 ± 0.061 | 1.073 ± 0.053
x1 = 0.8521 | 977.72 ± 0.44 | 969.16 ± 0.45 | 1409 ± 11 | 1365 ± 11 | 1.266 ± 0.061 | 1.067 ± 0.052
x1 = 0.9045 | 989.09 ± 0.41 | 980.48 ± 0.43 | 1411 ± 11 | 1370 ± 11 | 1.271 ± 0.061 | 1.076 ± 0.053
x1 = 0.9554 | 1000.23 ± 0.39 | 991.56 ± 0.41 | 1416 ± 11 | 1372 ± 11 | 1.276 ± 0.061 | 1.086 ± 0.053
